“And” between values parts separate entries of the source, which are not always exact repeats. Equal entries are not always repeated.
Conditions: 101.33 kPa, Liquid, Hot wire method

CCC(C)C(C)C (stereo unspecified) [2,3-dimethylpentane]
Conditions	thermal conductivity	thermal diffusivity
256.3 K	0.1178 W/m/K	–
256.7 K	0.1175 W/m/K	–
256.93 K	–	8.19e-08 m2/s
256.95 K	0.1173 W/m/K	–
257.7 K	–	8.09e-08 m2/s
258.3 K	–	8.05e-08 m2/s
269.57 K	0.114 W/m/K	–
269.87 K	0.1137 W/m/K	–
270.12 K	0.1135 W/m/K	–
270.24 K	–	7.8e-08 m2/s
270.9 K	–	7.79e-08 m2/s
271.49 K	–	7.72e-08 m2/s
284.74 K	0.1097 W/m/K	–
285.02 K	0.1093 W/m/K	–
285.27 K	0.1092 W/m/K	–
285.38 K	–	7.51e-08 m2/s
286.04 K	–	7.37e-08 m2/s
286.63 K	–	7.35e-08 m2/s
296.31 K	0.1057 W/m/K	–
296.36 K	0.1063 W/m/K	–
296.65 K	0.106 W/m/K	–
297 K	–	7.16e-08 m2/s
297.68 K	–	7.1e-08 m2/s
298.28 K	–	7.02e-08 m2/s
311.34 K	0.1022 W/m/K	–
311.66 K	0.102 W/m/K	–
311.93 K	0.1018 W/m/K	–
311.97 K	–	6.79e-08 m2/s
312.7 K	–	6.77e-08 m2/s
313.33 K	–	6.76e-08 m2/s
321.3 K	0.09959 W/m/K	–
321.59 K	0.09937 W/m/K	–
321.85 K	0.09916 W/m/K	–
321.91 K	–	6.53e-08 m2/s
322.58 K	–	6.46e-08 m2/s
323.18 K	–	6.43e-08 m2/s
331.96 K	0.097 W/m/K	–
332.21 K	0.09651 W/m/K and 0.09662 W/m/K	–
332.5 K	–	6.07e-08 m2/s
333.06 K	–	5.99e-08 m2/s and 6e-08 m2/s
343.12 K	0.09411 W/m/K	–
343.36 K	0.09373 W/m/K	–
343.59 K	0.09353 W/m/K	–
343.64 K	–	5.78e-08 m2/s
344.2 K	–	5.72e-08 m2/s
344.73 K	–	5.72e-08 m2/s

CC(C)CC(C)C [2,4-dimethylpentane]
Conditions	thermal conductivity [W/m/K]	thermal diffusivity [m2/s]
256.59 K	0.1138	–
256.99 K	0.1135	–
257.3 K	0.1133	–
257.56 K	–	7.9e-08
258.58 K	–	7.84e-08
259.37 K	–	7.76e-08
276.3 K	0.1082	–
276.69 K	0.1079	–
277.04 K	0.1077	–
277.29 K	–	7.41e-08
278.27 K	–	7.29e-08
279.16 K	–	7.28e-08
296.19 K	0.1025	–
296.63 K	0.1022	–
296.97 K	0.102	–
297.18 K	–	6.9e-08
298.25 K	–	6.83e-08
299.08 K	–	6.77e-08
316.55 K	0.09692	–
317.01 K	0.09668	–
317.37 K	0.09645	–
317.55 K	–	6.43e-08
318.67 K	–	6.39e-08
319.53 K	–	6.32e-08
333.96 K	0.0924	–
334.43 K	0.09213	–
334.81 K	0.09197	–
334.93 K	–	5.99e-08
336.06 K	–	5.98e-08
336.97 K	–	5.96e-08

CCCCCC(C)C [2-methylheptane]
Conditions	thermal conductivity [W/m/K]	thermal diffusivity [m2/s]
259.12 K	0.1244	–
259.33 K	0.1242	–
259.51 K	0.1242	–
260.04 K	–	8.23e-08
260.63 K	–	8.22e-08
261.12 K	–	8.22e-08
277.53 K	0.1195	–
277.77 K	0.1194	–
277.96 K	0.1193	–
278.48 K	–	7.83e-08
279.11 K	–	7.84e-08
279.63 K	–	7.81e-08
295.72 K	0.1145	–
295.95 K	0.1144	–
296.16 K	0.1143	–
296.69 K	–	7.41e-08
297.31 K	–	7.42e-08
297.85 K	–	7.39e-08
313.83 K	0.1097	–
314.07 K	0.1095	–
314.3 K	0.1095	–
314.83 K	–	7.05e-08
315.46 K	–	7.04e-08
316.05 K	–	7.06e-08
327.74 K	0.1061	–
328 K	0.1059	–
328.23 K	0.1058	–
328.77 K	–	6.82e-08
329.44 K	–	6.79e-08
330.02 K	–	6.78e-08

CCCCC(C)C [2-methylhexane]
Conditions	thermal conductivity [W/m/K]	thermal diffusivity [m2/s]
256.24 K	0.1227	–
256.67 K	0.1226	–
257.02 K	0.1224	–
257.46 K	–	8.41e-08
258.65 K	–	8.33e-08
259.64 K	–	8.28e-08
275.56 K	0.1172	–
276 K	0.1168	–
276.39 K	0.1167	–
276.83 K	–	8e-08
278.06 K	–	7.86e-08
279.12 K	–	7.85e-08
296.46 K	0.1109	–
296.93 K	0.1106	–
297.4 K	0.1105	–
297.8 K	–	7.5e-08
299.08 K	–	7.43e-08
300.34 K	–	7.38e-08
317.4 K	0.1049	–
317.92 K	0.1047	–
318.35 K	0.1045	–
318.77 K	–	7.02e-08
320.16 K	–	6.96e-08
321.33 K	–	6.94e-08
337.1 K	0.09956	–
337.65 K	0.0992	–
338.11 K	0.09905	–
338.49 K	–	6.63e-08
339.91 K	–	6.52e-08
341.12 K	–	6.49e-08

CCCC(C)C [2-methylpentane]
Conditions	thermal conductivity [W/m/K]	thermal diffusivity [m2/s]
256.56 K	0.1182	–
256.89 K	0.1181	–
257.29 K	0.1179	–
257.79 K	–	8.23e-08
258.59 K	–	8.18e-08
259.61 K	–	8.15e-08
277.01 K	0.1114	–
277.35 K	0.1113	–
277.8 K	0.1111	–
278.28 K	–	7.65e-08
279.1 K	–	7.61e-08
280.22 K	–	7.57e-08
297.36 K	0.1049	–
297.71 K	0.1048	–
298.16 K	0.1046	–
298.66 K	–	7.11e-08
299.5 K	–	7.09e-08
300.57 K	–	7.04e-08
314.15 K	0.09989	–
314.51 K	0.09978	–
314.99 K	0.09959	–
315.5 K	–	6.71e-08
316.34 K	–	6.69e-08
317.47 K	–	6.65e-08
328.29 K	0.09597	–
328.64 K	0.09583	–
329.15 K	0.09564	–
329.7 K	–	6.42e-08
330.51 K	–	6.39e-08
331.7 K	–	6.36e-08

From the NIST ThermoML archive (doi:10.1021/je020125e)
